Structures can show the parent of a compound that is named as a salt.

One experiment deals with ROCK2 (Homo sapiens, UniProt O75116). The experiment can be described thus: ROCK2 kinase inhibition assay (LABCHIP 3000 Reader, FITC peptide substrate).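 Further: rho kinase reaction read by separating phosphorylated from unphosphorylated peptide on chip, with inhibition of kinase activity computed per concentration across a dose-response series.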
Sequence of ROCK2 (O75116 whole entry, species assumed): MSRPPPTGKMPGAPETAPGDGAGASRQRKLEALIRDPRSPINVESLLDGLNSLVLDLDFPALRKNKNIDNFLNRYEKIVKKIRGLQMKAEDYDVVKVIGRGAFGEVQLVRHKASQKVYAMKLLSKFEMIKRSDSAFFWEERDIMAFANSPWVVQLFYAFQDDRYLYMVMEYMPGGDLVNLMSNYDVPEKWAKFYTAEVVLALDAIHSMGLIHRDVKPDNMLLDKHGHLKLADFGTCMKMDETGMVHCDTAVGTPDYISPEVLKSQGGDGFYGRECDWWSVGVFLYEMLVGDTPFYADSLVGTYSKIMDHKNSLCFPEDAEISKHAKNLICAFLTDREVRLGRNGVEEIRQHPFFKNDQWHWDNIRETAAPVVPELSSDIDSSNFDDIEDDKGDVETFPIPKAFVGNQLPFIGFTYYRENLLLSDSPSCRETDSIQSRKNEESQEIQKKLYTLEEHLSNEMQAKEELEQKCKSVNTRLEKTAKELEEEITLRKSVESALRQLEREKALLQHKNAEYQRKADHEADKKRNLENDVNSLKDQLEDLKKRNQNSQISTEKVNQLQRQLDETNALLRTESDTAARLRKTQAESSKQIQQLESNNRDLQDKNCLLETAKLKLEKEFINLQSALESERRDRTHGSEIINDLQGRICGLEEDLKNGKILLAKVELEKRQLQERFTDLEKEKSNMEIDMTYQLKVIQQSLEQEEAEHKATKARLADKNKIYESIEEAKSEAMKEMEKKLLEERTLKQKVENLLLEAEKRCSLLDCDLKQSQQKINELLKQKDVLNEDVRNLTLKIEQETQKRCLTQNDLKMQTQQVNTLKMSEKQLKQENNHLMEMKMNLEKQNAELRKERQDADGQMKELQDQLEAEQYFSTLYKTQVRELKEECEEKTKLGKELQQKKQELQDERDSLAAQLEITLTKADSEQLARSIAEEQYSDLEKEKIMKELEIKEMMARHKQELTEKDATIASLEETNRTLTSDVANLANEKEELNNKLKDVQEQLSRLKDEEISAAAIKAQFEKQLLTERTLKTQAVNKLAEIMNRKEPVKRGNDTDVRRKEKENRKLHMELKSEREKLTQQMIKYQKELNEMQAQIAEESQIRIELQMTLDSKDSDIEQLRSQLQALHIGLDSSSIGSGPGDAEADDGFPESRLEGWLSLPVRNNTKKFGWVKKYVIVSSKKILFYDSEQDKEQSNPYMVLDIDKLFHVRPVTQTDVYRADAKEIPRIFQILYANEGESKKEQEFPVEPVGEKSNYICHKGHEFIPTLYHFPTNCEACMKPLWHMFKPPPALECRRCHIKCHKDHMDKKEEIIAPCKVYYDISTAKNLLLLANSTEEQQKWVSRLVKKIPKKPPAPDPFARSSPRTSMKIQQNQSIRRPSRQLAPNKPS
Conditions: not given
`[2H]C([2H])([2H])n1cc(-c2ccc3c(C(=O)N[C@H]4CC5(C4)C[C@H](Oc4ncccc4C(N)=O)C5)nn(C(F)F)c3c2)cn1` (stereo partly drawn) [Example 111, 1-(difluoromethyl)-6-[1-(^2H3)methyl-1H-pyrazol-4-yl]-N-[(4s)-6-[(3-carbamoylpyridin-2-yl)oxy]spiro[3.3]heptan-2-yl]-1H-indazole-3-carboxamide, trifluoroacetate] came in with an IC50 of less than 5 nM.
Still for that read-out and setting: the same measure for `CC(C)(O)COc1ccc2c(C(=O)NC3CC4(C3)CC(Oc3ccc(F)cc3C(N)=O)C4)cnn2c1C1CC1` (stereo not drawn) [Example 271, N-(6-(2-carbamoyl-4-fluorophenoxy)spiro[3.3]heptan-2-yl)-7-cyclopropyl-6-(2-hydroxy-2-methylpropoxy)pyrazolo[1,5-a]pyridine-3-carboxamide]: 5 to 50 nM; for `[H][C@]1(Oc2ncccc2C(N)=O)C[C@]2(C[C@@H](NC(=O)c3cn4ccc(OCc5ccccc5)cc4n3)C2)C1` (stereo partly drawn) [Example 463, 7-(benzyloxy)-N-((aR)-6-((3-carbamoylpyridin-2-yl)oxy)spiro 3.31 heptan-2-yl)imidazo[1,2-a]pyridine-2-carboxamide, TFA Salt]: 50 to 250 nM.
Still for that read-out and setting: then `CCCNC(=O)c1cc(F)cc(-c2ccc(C(N)=O)c(OC3CC4(CC(NC(=O)c5cnn6cc(OCC(C)(C)O)ccc56)C4)C3)c2)c1` (stereo not drawn) [Example 251, 5-fluoro-3′-((6-(6-(2-hydroxy-2-methylpropoxy)pyrazolo[1,5-a]pyridine-3-carboxamido)spiro[3.3]heptan-2-yl)oxy)-N3-propyl-[1,1′-biphenyl]-3,4′-dicarboxamide], with 5 to 50 nM.
For the compound `CC(C)(O)COc1ccc2c(C(=O)NC3CC4(C3)CC(Oc3cc(-c5cccc(/C=C/C(=O)O)c5)ccc3C(N)=O)C4)cnn2c1` (stereo not drawn) [Example 291, (E)-3-(4′-carbamoyl-3′-((6-(6-(2-hydroxy-2-methylpropoxy)pyrazolo[1,5-a]pyridine-3-carboxamido)spiro[3.3]heptan-2-yl)oxy)-[1,1′-biphenyl]-3-yl)acrylic acid], the IC50 lay in the range of 5 to 50 nM.
Compound `Cn1cc(-c2ccn3c(C(=O)N[C@H]4CC5(C4)C[C@H](Oc4ccccc4C(N)=O)C5)cnc3c2)cn1` (stereo partly drawn) [Example 34, N-[(aR)-6-(2-carbamoylphenoxy)spiro [3.3]heptan-2-yl]-7-(1-methyl-1H-pyrazol-4-yl)imidazo [1,2-a]pyridine-3-carboxamide] returned an IC50 of 5 to 50 nM.
The same measure, in the same setting: then `Cc1nnnn1-c1cccc(C(=O)N[C@H]2CC3(C2)C[C@H](Oc2ncccc2C(N)=O)C3)c1` (stereo partly drawn) [Example 142, 2-(((aR)-6-(3-(5-methyl-1H-tetrazol-1-yl)benzamido)spiro[3.3]heptan-2-yl)oxy) nicotinamide, trifluoroacetate], with 50 to 250 nM; and `COc1ccc(CCc2ccccc2C(=O)N[C@H]2CC3(C2)C[C@H](Oc2ncccc2C(N)=O)C3)cc1` (stereo partly drawn) [Example 143, 2-(((aR)-6-(2-(4-methoxyphenethyl)benzamido)spiro[3.3]heptan-2-yl)oxy)nicotinamide, trifluoroacetate], with 250 to 2500 nM.
In the case of `COCCNC(=O)c1cccc(-c2ccc(C(N)=O)c(OC3CC4(CC(NC(=O)c5cnn6cc(OCC(C)(C)O)ccc56)C4)C3)c2)c1` (stereo not drawn) [Example 293, 3′-((6-(6-(2-hydroxy-2-methylpropoxy)pyrazolo[1,5-a]pyridine-3-carboxamido)spiro[3.3]heptan-2-yl)oxy)-N3-(2-methoxyethyl)-[1,1′-biphenyl]-3,4′-dicarboxamide], the concentration for half-maximal inhibition (IC50) lay within 5 to 50 nM.
In the case of `NC(=O)c1ccccc1OC1CC2(CC(NC(=O)c3cnn4c(C5CC5)c(OCCC(F)(F)F)ccc34)C2)C1` [Example 32, N-[(aR)-6-(2-carbamoylphenoxy)spiro [3.3]heptan-2-yl]-7-cyclopropyl-6-(3,3,3-trifluoropropoxy)pyrazolo [1,5-a]pyridine-3-carboxamide], the half-maximal inhibitory concentration (IC50) is less than 5 nM.
Same read-out and setting: the same measure for `Cc1ncc(-c2ccc3c(C(=O)NC4CC5(C4)CC(Oc4ncccc4C(N)=O)C5)nc(C(F)F)n3c2)s1` [Example 436, N-((aR)-6-((3-carbamoylpyridin-2-yl)oxy)spiro[3.3]heptan-2-yl)-3-(difluoromethyl)-6-(2-methylthiazol-5-yl)imidazo[1,5-a]pyridine-1-carboxamide]: less than 5 nM.
Same read-out and setting: then `Cc1nc(-c2cccnc2)sc1C(=O)N[C@H]1CC2(C1)C[C@H](Oc1ncccc1C(N)=O)C2` (stereo partly drawn) [Example 135, N-((aR)-6-((3-carbamoylpyridin-2-yl)oxy)spiro [3.3]heptan-2-yl)-4-methyl-2-(pyridin-3-yl)thiazole-5-carboxamide, bis-trifluoroacetate], with 250 to 2500 nM; and `N#Cc1ccc(F)c(C(=O)N[C@H]2CC3(C2)C[C@H](Oc2ncccc2C(N)=O)C3)c1` (stereo partly drawn) [Example 155, 2-(((aR)-6-(5-cyano-2-fluorobenzamido)spiro[3.3]heptan-2-yl)oxy)nicotinamide], with 250 to 2500 nM.
Same read-out and setting: then `COC(=O)c1cncc(-c2ccc(C(N)=O)c(OC3CC4(CC(NC(=O)c5cnn6cc(OCC(C)(C)O)ccc56)C4)C3)c2)c1` (stereo not drawn) [Example 232, methyl 5-(4-carbamoyl-3-((6-(6-(2-hydroxy-2-methylpropoxy)pyrazolo[1,5-a]pyridine-3-carboxamido)spiro[3.3]heptan-2-yl)oxy)phenyl)nicotinate], with 5 to 50 nM; and `CC(C)(O)COc1ccc2c(C(=O)NC3CC4(C3)CC(Oc3cc(-c5ccc(F)c(C(N)=O)c5)ccc3C(N)=O)C4)cnn2c1` (stereo not drawn) [Example 292, 4-fluoro-3′-((6-(6-(2-hydroxy-2-methylpropoxy)pyrazolo[1,5-a]pyridine-3-carboxamido)spiro[3.3]heptan-2-yl)oxy)-[1,1′-biphenyl]-3,4′-dicarboxamide], with less than 5 nM; and `NC(=O)c1cccnc1O[C@H]1CC2(C[C@H](NC(=O)c3cnc4cc(OCCN5CCCC5)ccn34)C2)C1` (stereo partly drawn) [Example 325, N-((aR)-6-((3-carbamoylpyridin-2-yl)oxy)spiro[3.3]heptan-2-yl)-7-(2-(pyrrolidin-1-yl)ethoxy)imidazo[1,2-a]pyridine-3-carboxamide], with 5 to 50 nM.
With `N#Cc1cccc(-c2ncc(C(=O)NC3CC4(C3)CC(Oc3ncccc3C(N)=O)C4)s2)c1` [Example 420, N-((aR)-6-((3-carbamoylpyridin-2-yl)oxy)spiro[3.3]heptan-2-yl)-2-(3-cyanophenyl)thiazole-5-carboxamide, TFA], the concentration for half-maximal inhibition (IC50) lay within 5 to 50 nM.
On the same count and under the same terms, the same measure for `CS(=O)(=O)CCCOc1ccc2c(C(=O)NC3CC4(C3)CC(Oc3ccccc3C(N)=O)C4)cnn2c1C1CC1` [Example 30, N-[(aR)-6-(2-carbamoylphenoxy)spiro [3.3]heptan-2-yl]-7-cyclopropyl-6-(3-methanesulfonylpropoxy) pyrazolo[1,5-a] pyridine-3-carboxamide]: less than 5 nM.
The same measure, in the same setting: the same measure for `COc1ccc(C(N)=O)c(OC2CC3(CC(NC(=O)c4cnn5c(C6CC6)c(OCC(C)(C)O)ccc45)C3)C2)c1` (stereo not drawn) [Example 211, N-(6-(2-carbamoyl-5-methoxyphenoxy)spiro[3.3]heptan-2-yl)-7-cyclopropyl-6-(2-hydroxy-2-methylpropoxy)pyrazolo[1,5-a]pyridine-3-carboxamide]: less than 5 nM.
Still for that read-out and setting: then `CC(C)(O)COc1ccc2c(C(=O)NC3CC4(C3)CC(Oc3cc(-c5cnn(C6CCOCC6)c5)ccc3C(N)=O)C4)cnn2c1` (stereo not drawn) [Example 278, N-(6-(2-carbamoyl-5-(1-(tetrahydro-2H-pyran-4-yl)-1H-pyrazol-4-yl)phenoxy)spiro[3.3]heptan-2-yl)-6-(2-hydroxy-2-methylpropoxy)pyrazolo[1,5-a]pyridine-3-carboxamide], with 5 to 50 nM.
`Cc1noc(C)c1-c1cc(C#N)cc(C(=O)N[C@H]2CC3(C2)C[C@H](Oc2ncccc2C(N)=O)C3)c1` (stereo partly drawn) [Example 190, 2-((aR)-6-(3-cyano-5-(3,5-dimethylisoxazol-4-yl)benzamido)spiro[3.3]heptan-2-yl)oxy)nicotinamide, trifluoroacetate] returned an IC50 of 5 to 50 nM.

The experiment is the same for the next values; noted with them: read-out: ROCK2 Activity (ROCK2 IC50); 5 μM ATP, 1.5 μM peptide substrate, pH 7.5.
As to `NC(=O)c1cccnc1OC1CC2(CC(NC(=O)c3nc(C(F)(F)F)n4ccccc34)C2)C1` [Example 430, N-((aR)-6-((3-carbamoylpyridin-2-yl)oxy)spiro[3.3]heptan-2-yl)-3-(trifluoromethyl)imidazo[1,5-a]pyridine-1-carboxamide], the IC50 lay within 5 to 50 nM.
Same read-out and setting: the same measure for “N-((aR)-6-((3- carbamoylpyridin-2- yl)oxxy)spiro[3.3] heptan-2-yl)- 5-fluoro-1- (2-hydroxy-2- methylpropyl)- 3a,7a-dihydro- 1H-indazole-3- carboxamide, trifluoroacetate [Example 67]”: 5 to 50 nM; for `Cc1c(C(=O)N[C@H]2CC3(C2)C[C@H](Oc2ncccc2C(N)=O)C3)cnn1Cc1ccc(F)cc1` (stereo partly drawn) [Example 383, N-[(aR)2-[(6-{1-[(4-fluorophenyl)methyl]-5-methyl-1H-pyrazole-4-amido}spiro[3.3]heptan-2-yl)oxy]pyridine-3-carboxamide 1 trifluoroacetic acid salt]: 5 to 50 nM; for `CC(C)(O)CCOc1ccc2c(C(=O)NC3CC4(C3)CC(Oc3ncccc3C(N)=O)C4)nc(C(F)F)n2c1` [Example 441, N-((aR)-6-((3-carbamoylpyridin-2-yl)oxy)spiro[3.3]heptan-2-yl)-3-(difluoromethyl)-6-(3-hydroxy-3-methylbutoxy)imidazo[1,5-a]pyridine-1-carboxamide]: less than 5 nM.
“N-((aR)-6-((3- carbamoylpyridin-2- yl)oxy)spiro[3.3] heptan-2-yl)- 6-(3-hydroxy-3- methylbutoxy) pyrazolo[1,5- a]pyridine-3- carboxamide, trifluoroacetate [Example 123]”: the half-inhibitory concentration (IC50) was 5 to 50 nM.
Same read-out and setting: then `CC(C)(CN)Oc1ccc2c(C(=O)NC3CC4(C3)CC(Oc3ncccc3C(N)=O)C4)nc(C(F)F)n2c1` [Example 443, 6-((1-amino-2-methylpropan-2-yl)oxy)-N-((aR)-6-((3-carbamoylpyridin-2-yl)oxy)spiro[3.3]heptan-2-yl)-3-(difluoromethyl)imidazo[1,5-a]pyridine-1-carboxamide], with 250 to 2500 nM.

Values taken from patent US10829501B2 (BRISTOL-MYERS SQUIBB COMPANY, priority 2016, dated 2020).
